In PubChem BioAssay AID1259407 (Chemical Carcinogenesis Research Information System (CCRIS), 2018):
Calls of active or inactive are those of the source. No rule for the calls is given here.

Tested on: CCRIS mutagenicity, Ames/micronucleus/aberration tests
Assay: CCRIS mutagenicity studies
[1] = Test System: AMES SALMONELLA TYPHIMURIUM, Strain/Indicator: TA98, Metabolic Activation: HAMSTER, LIVER, S-9, AROCLOR 1254 (10%), Method: PREINCUBATION
[2] = Test System: AMES SALMONELLA TYPHIMURIUM, Strain/Indicator: TA98, Metabolic Activation: NONE, Method: PREINCUBATION
[3] = Test System: AMES SALMONELLA TYPHIMURIUM, Strain/Indicator: TA98, Metabolic Activation: RAT, LIVER, S-9, AROCLOR 1254 (10%), Method: PREINCUBATION
[4] = Test System: AMES SALMONELLA TYPHIMURIUM, Strain/Indicator: TA100, Metabolic Activation: HAMSTER, LIVER, S-9, AROCLOR 1254 (10%), Method: PREINCUBATION
[5] = Test System: AMES SALMONELLA TYPHIMURIUM, Strain/Indicator: TA100, Metabolic Activation: NONE, Method: PREINCUBATION
[6] = Test System: AMES SALMONELLA TYPHIMURIUM, Strain/Indicator: TA100, Metabolic Activation: RAT, LIVER, S-9, AROCLOR 1254 (10%), Method: PREINCUBATION
[7] = Test System: AMES SALMONELLA TYPHIMURIUM, Strain/Indicator: TA1535, Metabolic Activation: HAMSTER, LIVER, S-9, AROCLOR 1254 (10%), Method: PREINCUBATION
[8] = Test System: AMES SALMONELLA TYPHIMURIUM, Strain/Indicator: TA1535, Metabolic Activation: NONE, Method: PREINCUBATION
[9] = Test System: AMES SALMONELLA TYPHIMURIUM, Strain/Indicator: TA1535, Metabolic Activation: RAT, LIVER, S-9, AROCLOR 1254 (10%), Method: PREINCUBATION
[10] = Test System: AMES SALMONELLA TYPHIMURIUM, Strain/Indicator: TA1537, Metabolic Activation: HAMSTER, LIVER, S-9, AROCLOR 1254 (10%), Method: PREINCUBATION
[11] = Test System: AMES SALMONELLA TYPHIMURIUM, Strain/Indicator: TA1537, Metabolic Activation: NONE, Method: PREINCUBATION
[12] = Test System: AMES SALMONELLA TYPHIMURIUM, Strain/Indicator: TA1537, Metabolic Activation: RAT, LIVER, S-9, AROCLOR 1254 (10%), Method: PREINCUBATION
[13] = Test System: AMES SALMONELLA TYPHIMURIUM, Strain/Indicator: TA98, Metabolic Activation: NONE, Method: STANDARD PLATE
[14] = Test System: AMES SALMONELLA TYPHIMURIUM, Strain/Indicator: TA100, Metabolic Activation: NONE, Method: STANDARD PLATE

CC(=O)c1c(=O)cc(C)oc1=O was tested, and the mutagenic call (End Point: IN VIVO MICRONUCLEUS, Test System: BONE MARROW POLYCHROMATIC ERYTHROCYTES, Species: MOUSE, Strain/Sex: DDY/MALE, Route: IP) was “active; positive”, the mutagenic call (Test System: AMES SALMONELLA TYPHIMURIUM, Strain/Indicator: TA97A, Metabolic Activation: NONE, Method: PREINCUBATION) was “inactive; negative” and the mutagenic call (Test System: AMES SALMONELLA TYPHIMURIUM, Strain/Indicator: TA97A, Metabolic Activation: RAT, LIVER, S-9, AROCLOR 1254, Method: PREINCUBATION) was “inactive; negative”. For the same compound, the mutagenic call [1] was “inactive; negative”, the mutagenic call [2] was “inactive; negative” and the mutagenic call [3] was “inactive; negative”. For the same compound, the mutagenic call [4] was “inactive; negative”, the mutagenic call [5] was “inactive; negative” and the mutagenic call [6] was “inactive; negative”. For the same compound, the mutagenic call (Test System: AMES SALMONELLA TYPHIMURIUM, Strain/Indicator: TA102, Metabolic Activation: NONE, Method: PREINCUBATION) was “inactive; negative”, the mutagenic call (Test System: AMES SALMONELLA TYPHIMURIUM, Strain/Indicator: TA102, Metabolic Activation: RAT, LIVER, S-9, AROCLOR 1254, Method: PREINCUBATION) was “inactive; negative” and the mutagenic call [7] was “inactive; negative”. The mutagenic call [8] was “inactive; negative”, the mutagenic call [9] was “inactive; negative” and the mutagenic call [10] was “inactive; negative”. The mutagenic call [11] was “inactive; negative” and the mutagenic call [12] was “inactive; negative”.

In the case of CCCSP(=O)(OCC)Oc1ccc(Br)cc1Cl (stereo not given), the mutagenic call (End Point: In vitro chromosomal aberrations, Test System: Human peripheral lymphocytes, Metabolic Activation: None) is reported as “active; positive (structural changes)” and the mutagenic call (End Point: In vivo chromosomal aberrations, Test System: Bone marrow cells, Species: Mouse, Strain/Sex: Swiss/Male, Route: Oral) is reported as “active; positive (structural changes and ploidy)”.

COc1cc(Oc2ccc(Cl)cc2Cl)ccc1N was tested, and the mutagenic call (Test System: AMES SALMONELLA TYPHIMURIUM, Strain/Indicator: TA98, Metabolic Activation: S-9, Method: STANDARD PLATE) was “inactive; negative”, the mutagenic call (Test System: AMES SALMONELLA TYPHIMURIUM, Strain/Indicator: TA100, Metabolic Activation: S-9, Method: STANDARD PLATE) was “active; positive” and the mutagenic call (Test System: AMES SALMONELLA TYPHIMURIUM, Strain/Indicator: YG1021, Metabolic Activation: S-9, Method: STANDARD PLATE) was “inactive; negative”. The mutagenic call (Test System: AMES SALMONELLA TYPHIMURIUM, Strain/Indicator: YG1024, Metabolic Activation: S-9, Method: STANDARD PLATE) was “active; positive”, the mutagenic call (Test System: AMES SALMONELLA TYPHIMURIUM, Strain/Indicator: YG1026, Metabolic Activation: S-9, Method: STANDARD PLATE) was “active; positive” and the mutagenic call (Test System: AMES SALMONELLA TYPHIMURIUM, Strain/Indicator: YG1029, Metabolic Activation: S-9, Method: STANDARD PLATE) was “active; positive”.

For O=[N+]([O-])c1ccc2cccc3c2c1CC3, the mutagenic call [13] was “active; positive”.

COc1ccc2[nH]c3c(C)cc(N)c(C)c3c2c1 was tested, and the mutagenic call [13] was “inactive; negative”, the mutagenic call (Test System: AMES SALMONELLA TYPHIMURIUM, Strain/Indicator: TA98, Metabolic Activation: RAT LIVER S-9, AROCLOR 1254, Method: STANDARD PLATE) was “active; positive” and the mutagenic call [14] was “inactive; negative”. The mutagenic call (Test System: AMES SALMONELLA TYPHIMURIUM, Strain/Indicator: TA100, Metabolic Activation: RAT LIVER S-9, AROCLOR 1254, Method: STANDARD PLATE) was “inactive; negative”.

CN(C(=O)c1csc([N+](=O)[O-])c1)c1ccccc1 was tested, and the mutagenic call [13] was “active; positive” and the mutagenic call [14] was “active; positive”.

With Cc1ccc2c(ccc3cc4ccccc4cc32)c1 the mutagenic call (Test System: AMES SALMONELLA TYPHIMURIUM, Strain/Indicator: TA100, Metabolic Activation: RAT, INTACT HEPATOCYTES, AROCLOR 1254, Method: PREINCUBATION) was “inactive; negative”, the mutagenic call (Test System: AMES SALMONELLA TYPHIMURIUM, Strain/Indicator: TA100, Metabolic Activation: RAT, NADPH-FORTIFIED HOMOGENIZED HEPATOCYTES, AROCLOR 1254, Method: PREINCUBATION) was “active; positive” and the mutagenic call (Test System: AMES SALMONELLA TYPHIMURIUM, Strain/Indicator: TA100, Metabolic Activation: RAT, SONICATED HEPATOCYTES, AROCLOR 1254, Method: PREINCUBATION) was “active; positive”.

Cc1ccc(S(=O)(=O)Oc2ccc(N=Nc3ccc(-c4ccc(N=Nc5c(O)ccc6cc(S(=O)(=O)O)cc(S(=O)(=O)O)c56)c(C)c4)cc3C)cc2)cc1 was tested, and the mutagenic call [1] was “active; positive”, the mutagenic call (Test System: AMES SALMONELLA TYPHIMURIUM, Strain/Indicator: TA98, Metabolic Activation: HAMSTER, LIVER, S-9, Method: PREINCUBATION (PRIVAL METHOD)) was “active; positive” and the mutagenic call [2] was “inactive; negative”. For the same compound, the mutagenic call [3] was “inactive; negative”, the mutagenic call [4] was “inactive; negative” and the mutagenic call [5] was “inactive; negative”. The mutagenic call [6] was “inactive; negative”, the mutagenic call [7] was “inactive; negative” and the mutagenic call [8] was “inactive; negative”. For the same compound, the mutagenic call [9] was “inactive; negative”, the mutagenic call [10] was “inactive; negative” and the mutagenic call [11] was “inactive; negative”. For the same compound, the mutagenic call [12] was “inactive; negative” and the mutagenic call (Test System: AMES SALMONELLA TYPHIMURIUM, Strain/Indicator: TA1538, Metabolic Activation: RAT, LIVER, S-9, AROCLOR 1254, Method: STANDARD PLATE) was “active; positive”.

In the case of C=C1C(=O)O[C@@H]2[C@H]1CC[C@H](C)[C@@H]1C=CC(=O)[C@@]21C, the mutagenic call [13] is reported as “inactive; negative”, the mutagenic call (Test System: AMES SALMONELLA TYPHIMURIUM, Strain/Indicator: TA98, Metabolic Activation: RAT, LIVER, S-9, AROCLOR 1254, Method: STANDARD PLATE) is reported as “inactive; negative” and the mutagenic call [14] is reported as “inactive; negative”. For the same compound, the mutagenic call (Test System: AMES SALMONELLA TYPHIMURIUM, Strain/Indicator: TA100, Metabolic Activation: RAT, LIVER, S-9, AROCLOR 1254, Method: STANDARD PLATE) was “inactive; negative”.

With ONc1cccc2ccccc12 the mutagenic call [13] was “active; positive” and the mutagenic call [14] was “active; positive”.

OC1c2ccc3nc4c(ccc5ccccc54)cc3c2C2OC2C1O (stereo not given) was tested, and the mutagenic call (Test System: AMES SALMONELLA TYPHIMURIUM, Strain/Indicator: TA98, Metabolic Activation: RAT, LIVER, AROCLOR 1254, NADPH GENERATING SYSTEM, Method: STANDARD PLATE) was “inactive; negative”, the mutagenic call (Test System: AMES SALMONELLA TYPHIMURIUM, Strain/Indicator: TA100, Metabolic Activation: RAT, LIVER, AROCLOR 1254, NADPH GENERATING SYSTEM, Method: STANDARD PLATE) was “inactive; negative” and the mutagenic call (Test System: CHINESE HAMSTER V-79, Strain/Indicator: V-79/8-AZAGUANINE, Method: STANDARD PLATE) was “inactive; negative”.

O=[N+]([O-])c1ccc(Nc2ccc(Cl)cc2)cc1 was tested, and the mutagenic call [2] was “inactive; negative” and the mutagenic call (Test System: AMES SALMONELLA TYPHIMURIUM, Strain/Indicator: TA98, Metabolic Activation: RAT, LIVER, S-9, AROCLOR 1254, Method: PREINCUBATION) was “active; positive”.
